ChEMBL document CHEMBL4340528, “Profiling withanolide A for therapeutic targets in neurodegenerative diseases” (Bioorg Med Chem, 2019)

Tests used:
SH-SY5Y [1] = experiment: Induction of neurite outgrowth in human SH-SY5Y cells assessed as increase in neurite length of more than 50 micrometer by measuring cell differentiation at 1 uM incubated for 6 days by Giemsa staining based phase contrast microscopic analysis relative to control; format: functional
SH-SY5Y [2] = experiment: Induction of neurite outgrowth in human SH-SY5Y cells assessed as increase in neurite length of more than 50 micrometer by measuring cell differentiation at 1 uM in presence of dexamethasone incubated for 6 days by Giemsa staining based phase contrast microscopic analysis relative to control; format: functional
[3] = biological target: Perilipin-3 (Homo sapiens) (UniProt O60664); conditions: A549, Lysate
Description: Binding affinity to PLIN3 in human A549 cells lysates grown on SILAC media at 10 uM incubated for 1 hr by LC-MS/MS analysis relative to untreated control

[4] = biological target: Minor histocompatibility antigen H13 (Homo sapiens) (UniProt Q8TCT9); conditions: A549, Lysate
Description: Binding affinity to HM13 in human A549 cells lysates grown on SILAC media at 10 uM incubated for 1 hr by LC-MS/MS analysis relative to untreated control

[5] = biological target: Cytochrome b5 type B (Homo sapiens) (UniProt O43169); conditions: A549, Lysate
Description: Binding affinity to CYB5B in human A549 cells lysates grown on SILAC media at 10 uM incubated for 1 hr by LC-MS/MS analysis relative to untreated control

[6] = biological target: Reticulon-4 (Homo sapiens) (UniProt Q9NQC3); conditions: A549, Lysate
Description: Binding affinity to RTN4 in human A549 cells lysates grown on SILAC media at 10 uM incubated for 1 hr by LC-MS/MS analysis relative to untreated control

[7] = biological target: T1, 1,25-dihydroxyvitamin D(3) 24-hydroxylase, mitochondrial (Homo sapiens, UniProt Q07973); experiment: Binding affinity to CYP24A1 in human A549 cells lysates grown on SILAC media at 10 uM incubated for 1 hr by LC-MS/MS analysis; format: subcellular, Lysate; conditions: a549, 1 h
T1 sequence (Q07973 whole entry): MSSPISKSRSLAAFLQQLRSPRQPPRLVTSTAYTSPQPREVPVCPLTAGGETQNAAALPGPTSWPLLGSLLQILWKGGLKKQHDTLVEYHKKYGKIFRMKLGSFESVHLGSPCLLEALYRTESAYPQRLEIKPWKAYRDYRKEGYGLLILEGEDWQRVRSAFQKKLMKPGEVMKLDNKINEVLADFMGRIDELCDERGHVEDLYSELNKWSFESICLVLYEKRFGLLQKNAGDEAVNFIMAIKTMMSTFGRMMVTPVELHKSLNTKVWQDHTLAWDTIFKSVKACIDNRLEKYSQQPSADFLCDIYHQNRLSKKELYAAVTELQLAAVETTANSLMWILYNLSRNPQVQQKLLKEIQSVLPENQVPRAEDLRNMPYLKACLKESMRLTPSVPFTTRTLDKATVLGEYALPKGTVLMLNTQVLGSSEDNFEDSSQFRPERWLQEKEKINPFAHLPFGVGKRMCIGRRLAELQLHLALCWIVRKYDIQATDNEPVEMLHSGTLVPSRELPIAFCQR

[8] = biological target: SAFB-like transcription modulator (Homo sapiens) (UniProt Q9NWH9); conditions: A549, Lysate
SH-SY5Y [9] = experiment: Induction of neurite outgrowth in human SH-SY5Y cells assessed as increase in neurite length of more than 50 micrometer by measuring cell differentiation at 1 uM in presence of mifepristone incubated for 6 days by Giemsa staining based phase contrast microscopic analysis relative to control; format: functional
[10] = biological target: Prostaglandin E synthase 2 (Homo sapiens) (UniProt Q9H7Z7); conditions: A549, Lysate
Description: Binding affinity to PTGES2 in human A549 cells lysates grown on SILAC media at 10 uM incubated for 1 hr by LC-MS/MS analysis relative to untreated control

[11] = biological target: Serine/threonine-protein kinase greatwall (Homo sapiens) (UniProt Q96GX5); conditions: A549, Lysate
Description: Binding affinity to MASTL in human A549 cells lysates grown on SILAC media at 10 uM incubated for 1 hr by LC-MS/MS analysis relative to untreated control

[12] = biological target: Transcription intermediary factor 1-beta (Homo sapiens) (UniProt Q13263); conditions: A549, Lysate
Description: Binding affinity to TRIM28 in human A549 cells lysates grown on SILAC media at 10 uM incubated for 1 hr by LC-MS/MS analysis relative to untreated control

[13] = biological target: Heterogeneous nuclear ribonucleoprotein F (Homo sapiens) (UniProt P52597); conditions: A549, Lysate
Description: Binding affinity to HNRNPF in human A549 cells lysates grown on SILAC media at 10 uM incubated for 1 hr by LC-MS/MS analysis relative to untreated control

[14] = biological target: Mitochondrial carrier homolog 2 (Homo sapiens) (UniProt Q9Y6C9); conditions: A549, Lysate
Description: Binding affinity to MTCH2 in human A549 cells lysates grown on SILAC media at 10 uM incubated for 1 hr by LC-MS/MS analysis relative to untreated control

[15] = biological target: WD repeat and HMG-box DNA-binding protein 1 (Homo sapiens) (UniProt O75717); conditions: A549, Lysate
Description: Binding affinity to WDHD1 in human A549 cells lysates grown on SILAC media at 10 uM incubated for 1 hr by LC-MS/MS analysis relative to untreated control

[16] = biological target: Glutamate--cysteine ligase regulatory subunit (Homo sapiens) (UniProt P48507); conditions: A549, Lysate
Description: Binding affinity to GCLM in human A549 cells lysates grown on SILAC media at 10 uM incubated for 1 hr by LC-MS/MS analysis relative to untreated control

[17] = biological target: Non-selective voltage-gated ion channel VDAC2 (Homo sapiens) (UniProt P45880); conditions: A549, Lysate
Description: Binding affinity to VDAC2 in human A549 cells lysates grown on SILAC media at 10 uM incubated for 1 hr by LC-MS/MS analysis relative to untreated control

[18] = biological target: Cytoskeleton-associated protein 4 (Homo sapiens) (UniProt Q07065); conditions: A549, Lysate
Description: Binding affinity to CKAP4 in human A549 cells lysates grown on SILAC media at 10 uM incubated for 1 hr by LC-MS/MS analysis relative to untreated control

[19] = biological target: Aldo-keto reductase family 1 member C2 (Homo sapiens) (UniProt P52895); conditions: A549, Lysate
Description: Binding affinity to AKR1C2 in human A549 cells lysates grown on SILAC media at 10 uM incubated for 1 hr by LC-MS/MS analysis relative to untreated control

[20] = biological target: MKI67 FHA domain-interacting nucleolar phosphoprotein (Homo sapiens) (UniProt Q9BYG3); conditions: A549, Lysate
Description: Binding affinity to MKI67 in human A549 cells lysates grown on SILAC media at 10 uM incubated for 1 hr by LC-MS/MS analysis relative to untreated control

[21] = biological target: Heat shock protein beta-1 (Homo sapiens) (UniProt P04792); conditions: A549, Lysate
Description: Binding affinity to HSPB1 in human A549 cells lysates grown on SILAC media at 10 uM incubated for 1 hr by LC-MS/MS analysis relative to untreated control

[22] = biological target: Non-selective voltage-gated ion channel VDAC3 (Homo sapiens) (UniProt Q9Y277); conditions: A549, Lysate
Description: Binding affinity to VDAC3 in human A549 cells lysates grown on SILAC media at 10 uM incubated for 1 hr by LC-MS/MS analysis relative to untreated control

[23] = biological target: Sarcoplasmic/endoplasmic reticulum calcium ATPase 2 (Homo sapiens) (UniProt P16615); conditions: A549, Lysate
Description: Binding affinity to ATP2A2 in human A549 cells lysates grown on SILAC media at 10 uM incubated for 1 hr by LC-MS/MS analysis relative to untreated control

[24] = biological target: Isocitrate dehydrogenase [NADP] cytoplasmic (Homo sapiens) (UniProt O75874); conditions: A549, Lysate
Description: Binding affinity to IDH1 in human A549 cells lysates grown on SILAC media at 10 uM incubated for 1 hr by LC-MS/MS analysis relative to untreated control

[25] = biological target: Glucocorticoid receptor (Homo sapiens) (UniProt P04150); conditions: A549, Lysate
Description: Binding affinity to NR3C1 in human A549 cells lysates grown on SILAC media at 10 uM incubated for 1 hr by LC-MS/MS analysis relative to untreated control

[26] = biological target: Aldehyde dehydrogenase 1A1 (Homo sapiens) (UniProt P00352); conditions: A549, Lysate
Description: Binding affinity to ALDH1A1 in human A549 cells lysates grown on SILAC media at 10 uM incubated for 1 hr by LC-MS/MS analysis relative to untreated control

[27] = biological target: Keratin, type II cuticular Hb1 (Homo sapiens) (UniProt Q14533); conditions: A549, Lysate, pooled result: one value given for 5 cell lines, strains, targets or settings
Description: Binding affinity to KRT81 in human A549 cells lysates grown on SILAC media at 10 uM incubated for 1 hr by LC-MS/MS analysis relative to untreated control

[28] = biological target: Polyubiquitin-B (Homo sapiens) (UniProt P0CG47); conditions: A549, Lysate, pooled result: one value given for 5 cell lines, strains, targets or settings
Description: Binding affinity to UBB in human A549 cells lysates grown on SILAC media at 10 uM incubated for 1 hr by LC-MS/MS analysis relative to untreated control

[29] = biological target: Glutathione S-transferase 3, mitochondrial (Homo sapiens) (UniProt O14880); conditions: A549, Lysate
Description: Binding affinity to MGST3 in human A549 cells lysates grown on SILAC media at 10 uM incubated for 1 hr by LC-MS/MS analysis relative to untreated control

[30] = biological target: Mitochondrial import receptor subunit TOM40 homolog (Homo sapiens) (UniProt O96008); conditions: A549, Lysate
Description: Binding affinity to TOMM40 in human A549 cells lysates grown on SILAC media at 10 uM incubated for 1 hr by LC-MS/MS analysis relative to untreated control

[31] = biological target: G patch domain-containing protein 8 (Homo sapiens) (UniProt Q9UKJ3); conditions: A549, Lysate
Description: Binding affinity to GPATCH8 in human A549 cells lysates grown on SILAC media at 10 uM incubated for 1 hr by LC-MS/MS analysis relative to untreated control

[32] = biological target: Neutral cholesterol ester hydrolase 1 (Homo sapiens) (UniProt Q6PIU2); conditions: A549, Lysate
Description: Binding affinity to NCEH1 in human A549 cells lysates grown on SILAC media at 10 uM incubated for 1 hr by LC-MS/MS analysis relative to untreated control

[33] = biological target: Mitochondrial antiviral-signaling protein (Homo sapiens) (UniProt Q7Z434); conditions: A549, Lysate
Description: Binding affinity to MAVS in human A549 cells lysates grown on SILAC media at 10 uM incubated for 1 hr by LC-MS/MS analysis relative to untreated control

[34] = biological target: NPC intracellular cholesterol transporter 1 (Homo sapiens) (UniProt O15118); conditions: A549, Lysate
Description: Binding affinity to NPC1 in human A549 cells lysates grown on SILAC media at 10 uM incubated for 1 hr by LC-MS/MS analysis relative to untreated control

[35] = biological target: Ubiquitin carboxyl-terminal hydrolase 5 (Homo sapiens) (UniProt P45974); conditions: A549, Lysate
Description: Binding affinity to USP5 in human A549 cells lysates grown on SILAC media at 10 uM incubated for 1 hr by LC-MS/MS analysis relative to untreated control

[36] = biological target: Histidine--tRNA ligase, cytoplasmic (Homo sapiens) (UniProt P12081); conditions: A549, Lysate
Description: Binding affinity to HARS in human A549 cells lysates grown on SILAC media at 10 uM incubated for 1 hr by LC-MS/MS analysis relative to untreated control

[37] = biological target: von Willebrand factor (Homo sapiens) (UniProt P04275); conditions: A549, Lysate
Description: Binding affinity to VWF in human A549 cells lysates grown on SILAC media at 10 uM incubated for 1 hr by LC-MS/MS analysis relative to untreated control

[38] = biological target: Ubiquitin carboxyl-terminal hydrolase 10 (Homo sapiens) (UniProt Q14694); conditions: A549, Lysate
Description: Binding affinity to USP10 in human A549 cells lysates grown on SILAC media at 10 uM incubated for 1 hr by LC-MS/MS analysis relative to untreated control

[39] = biological target: Trifunctional enzyme subunit beta, mitochondrial (Homo sapiens) (UniProt P55084); conditions: A549, Lysate
Description: Binding affinity to HADHB in human A549 cells lysates grown on SILAC media at 10 uM incubated for 1 hr by LC-MS/MS analysis relative to untreated control

[40] = biological target: Carnitine O-palmitoyltransferase 1, liver isoform (Homo sapiens) (UniProt P50416); conditions: A549, Lysate
Description: Binding affinity to CPT1A in human A549 cells lysates grown on SILAC media at 10 uM incubated for 1 hr by LC-MS/MS analysis relative to untreated control

[41] = biological target: Glutathione S-transferase omega-1 (Homo sapiens) (UniProt P78417); conditions: A549, Lysate
Description: Binding affinity to GSTO1 in human A549 cells lysates grown on SILAC media at 10 uM incubated for 1 hr by LC-MS/MS analysis relative to untreated control

[42] = biological target: T1, 1,25-dihydroxyvitamin D(3) 24-hydroxylase, mitochondrial; experiment: Binding affinity to CYP24A1 in human A549 cells lysates grown on SILAC media at 10 uM incubated for 1 hr by LC-MS/MS analysis relative to untreated control; format: subcellular, Lysate; conditions: a549, 1 h
[43] = biological target: Antigen peptide transporter 1 (Homo sapiens) (UniProt Q03518); conditions: A549, Lysate
Description: Binding affinity to TAP1 in human A549 cells lysates grown on SILAC media at 10 uM incubated for 1 hr by LC-MS/MS analysis relative to untreated control

[44] = biological target: Heme oxygenase 2 (Homo sapiens) (UniProt P30519); conditions: A549, Lysate
Description: Binding affinity to HMOX2 in human A549 cells lysates grown on SILAC media at 10 uM incubated for 1 hr by LC-MS/MS analysis relative to untreated control

Chain of Cytoskeleton-associated protein 4 (Homo sapiens) (Q07065 whole entry): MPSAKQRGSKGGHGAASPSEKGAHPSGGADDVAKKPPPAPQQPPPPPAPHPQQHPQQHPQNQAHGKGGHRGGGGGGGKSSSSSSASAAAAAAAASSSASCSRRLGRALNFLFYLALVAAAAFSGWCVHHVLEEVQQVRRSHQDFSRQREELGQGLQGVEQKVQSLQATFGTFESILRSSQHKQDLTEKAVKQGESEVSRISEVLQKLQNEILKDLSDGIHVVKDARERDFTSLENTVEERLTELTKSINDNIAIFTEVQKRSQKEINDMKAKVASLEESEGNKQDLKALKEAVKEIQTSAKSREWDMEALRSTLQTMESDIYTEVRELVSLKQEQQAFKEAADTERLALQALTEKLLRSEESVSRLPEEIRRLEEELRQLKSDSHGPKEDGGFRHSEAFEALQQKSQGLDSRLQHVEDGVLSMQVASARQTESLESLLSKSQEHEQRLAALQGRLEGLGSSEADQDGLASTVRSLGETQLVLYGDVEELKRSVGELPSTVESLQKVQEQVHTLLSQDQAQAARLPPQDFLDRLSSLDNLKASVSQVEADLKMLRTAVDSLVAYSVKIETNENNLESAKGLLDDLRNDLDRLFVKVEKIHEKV
Chain of Sarcoplasmic/endoplasmic reticulum calcium ATPase 2 (Homo sapiens) (P16615 whole entry): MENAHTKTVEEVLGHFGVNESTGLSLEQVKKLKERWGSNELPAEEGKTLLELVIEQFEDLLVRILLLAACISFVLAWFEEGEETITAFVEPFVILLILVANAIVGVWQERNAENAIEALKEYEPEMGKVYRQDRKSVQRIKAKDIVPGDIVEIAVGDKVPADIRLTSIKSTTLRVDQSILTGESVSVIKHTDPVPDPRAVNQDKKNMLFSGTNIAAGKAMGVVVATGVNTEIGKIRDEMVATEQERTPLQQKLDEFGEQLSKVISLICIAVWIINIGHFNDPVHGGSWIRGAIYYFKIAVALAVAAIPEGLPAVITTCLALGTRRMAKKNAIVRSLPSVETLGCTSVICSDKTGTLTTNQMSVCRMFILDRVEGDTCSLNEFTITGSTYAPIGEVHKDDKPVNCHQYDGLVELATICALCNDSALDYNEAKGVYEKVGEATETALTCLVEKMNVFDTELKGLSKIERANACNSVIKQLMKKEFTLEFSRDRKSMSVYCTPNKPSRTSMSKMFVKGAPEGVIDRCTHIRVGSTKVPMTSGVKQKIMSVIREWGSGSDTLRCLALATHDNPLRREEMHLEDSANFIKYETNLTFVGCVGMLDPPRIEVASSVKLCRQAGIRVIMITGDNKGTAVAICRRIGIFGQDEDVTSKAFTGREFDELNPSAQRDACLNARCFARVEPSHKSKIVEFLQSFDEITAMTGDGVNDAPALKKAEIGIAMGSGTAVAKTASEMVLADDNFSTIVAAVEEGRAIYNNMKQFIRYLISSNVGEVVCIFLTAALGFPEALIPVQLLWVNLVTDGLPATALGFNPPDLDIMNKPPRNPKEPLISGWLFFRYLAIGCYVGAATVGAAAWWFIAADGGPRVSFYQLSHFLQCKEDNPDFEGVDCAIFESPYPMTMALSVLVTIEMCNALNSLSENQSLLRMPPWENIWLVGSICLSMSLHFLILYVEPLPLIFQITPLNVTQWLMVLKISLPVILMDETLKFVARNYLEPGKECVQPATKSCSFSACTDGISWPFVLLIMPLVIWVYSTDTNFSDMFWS
Chain of Non-selective voltage-gated ion channel VDAC3 (Homo sapiens) (Q9Y277 whole entry): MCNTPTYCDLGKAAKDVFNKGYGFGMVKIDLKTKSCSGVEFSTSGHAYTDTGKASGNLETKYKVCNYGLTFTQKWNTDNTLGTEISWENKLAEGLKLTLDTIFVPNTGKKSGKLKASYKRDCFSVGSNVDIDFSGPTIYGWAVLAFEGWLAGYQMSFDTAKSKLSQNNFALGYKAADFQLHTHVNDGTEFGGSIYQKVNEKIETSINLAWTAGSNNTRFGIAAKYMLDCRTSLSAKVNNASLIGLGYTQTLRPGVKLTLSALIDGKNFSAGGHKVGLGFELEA
Chain of Mitochondrial carrier homolog 2 (Homo sapiens) (Q9Y6C9 whole entry): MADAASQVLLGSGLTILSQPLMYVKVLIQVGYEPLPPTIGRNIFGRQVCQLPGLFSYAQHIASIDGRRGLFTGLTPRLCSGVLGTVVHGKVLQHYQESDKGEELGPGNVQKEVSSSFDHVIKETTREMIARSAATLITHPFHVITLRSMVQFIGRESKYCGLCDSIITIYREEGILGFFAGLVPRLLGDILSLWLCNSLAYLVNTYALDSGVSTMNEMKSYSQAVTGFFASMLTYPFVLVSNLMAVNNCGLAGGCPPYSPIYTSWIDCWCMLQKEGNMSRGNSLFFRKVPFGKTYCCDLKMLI
Chain of Non-selective voltage-gated ion channel VDAC2 (Homo sapiens) (P45880 whole entry): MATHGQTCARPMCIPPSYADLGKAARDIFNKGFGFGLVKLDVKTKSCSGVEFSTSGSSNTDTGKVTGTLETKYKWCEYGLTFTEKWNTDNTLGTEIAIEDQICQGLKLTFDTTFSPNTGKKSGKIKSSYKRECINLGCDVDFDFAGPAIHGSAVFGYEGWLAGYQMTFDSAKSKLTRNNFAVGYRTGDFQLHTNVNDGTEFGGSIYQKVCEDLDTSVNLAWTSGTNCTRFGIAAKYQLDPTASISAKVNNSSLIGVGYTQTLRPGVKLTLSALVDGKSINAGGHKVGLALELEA
Chain of Cytochrome b5 type B (Homo sapiens) (O43169 whole entry): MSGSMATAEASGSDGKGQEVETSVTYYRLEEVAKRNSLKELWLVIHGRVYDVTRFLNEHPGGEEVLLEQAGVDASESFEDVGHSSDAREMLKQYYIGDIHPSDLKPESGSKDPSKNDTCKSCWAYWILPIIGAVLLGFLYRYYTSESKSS
Chain of Minor histocompatibility antigen H13 (Homo sapiens) (Q8TCT9 whole entry): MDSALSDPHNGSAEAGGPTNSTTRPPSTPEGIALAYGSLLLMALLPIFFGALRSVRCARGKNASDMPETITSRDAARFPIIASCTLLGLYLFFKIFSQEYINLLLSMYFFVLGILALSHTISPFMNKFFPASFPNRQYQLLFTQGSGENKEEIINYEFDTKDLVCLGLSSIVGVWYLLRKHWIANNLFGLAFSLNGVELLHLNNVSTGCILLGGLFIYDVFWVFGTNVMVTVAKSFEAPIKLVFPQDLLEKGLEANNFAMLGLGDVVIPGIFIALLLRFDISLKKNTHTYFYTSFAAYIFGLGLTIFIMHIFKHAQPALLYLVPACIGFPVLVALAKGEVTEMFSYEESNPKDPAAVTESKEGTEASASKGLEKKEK
Chain of Reticulon-4 (Homo sapiens) (Q9NQC3 whole entry): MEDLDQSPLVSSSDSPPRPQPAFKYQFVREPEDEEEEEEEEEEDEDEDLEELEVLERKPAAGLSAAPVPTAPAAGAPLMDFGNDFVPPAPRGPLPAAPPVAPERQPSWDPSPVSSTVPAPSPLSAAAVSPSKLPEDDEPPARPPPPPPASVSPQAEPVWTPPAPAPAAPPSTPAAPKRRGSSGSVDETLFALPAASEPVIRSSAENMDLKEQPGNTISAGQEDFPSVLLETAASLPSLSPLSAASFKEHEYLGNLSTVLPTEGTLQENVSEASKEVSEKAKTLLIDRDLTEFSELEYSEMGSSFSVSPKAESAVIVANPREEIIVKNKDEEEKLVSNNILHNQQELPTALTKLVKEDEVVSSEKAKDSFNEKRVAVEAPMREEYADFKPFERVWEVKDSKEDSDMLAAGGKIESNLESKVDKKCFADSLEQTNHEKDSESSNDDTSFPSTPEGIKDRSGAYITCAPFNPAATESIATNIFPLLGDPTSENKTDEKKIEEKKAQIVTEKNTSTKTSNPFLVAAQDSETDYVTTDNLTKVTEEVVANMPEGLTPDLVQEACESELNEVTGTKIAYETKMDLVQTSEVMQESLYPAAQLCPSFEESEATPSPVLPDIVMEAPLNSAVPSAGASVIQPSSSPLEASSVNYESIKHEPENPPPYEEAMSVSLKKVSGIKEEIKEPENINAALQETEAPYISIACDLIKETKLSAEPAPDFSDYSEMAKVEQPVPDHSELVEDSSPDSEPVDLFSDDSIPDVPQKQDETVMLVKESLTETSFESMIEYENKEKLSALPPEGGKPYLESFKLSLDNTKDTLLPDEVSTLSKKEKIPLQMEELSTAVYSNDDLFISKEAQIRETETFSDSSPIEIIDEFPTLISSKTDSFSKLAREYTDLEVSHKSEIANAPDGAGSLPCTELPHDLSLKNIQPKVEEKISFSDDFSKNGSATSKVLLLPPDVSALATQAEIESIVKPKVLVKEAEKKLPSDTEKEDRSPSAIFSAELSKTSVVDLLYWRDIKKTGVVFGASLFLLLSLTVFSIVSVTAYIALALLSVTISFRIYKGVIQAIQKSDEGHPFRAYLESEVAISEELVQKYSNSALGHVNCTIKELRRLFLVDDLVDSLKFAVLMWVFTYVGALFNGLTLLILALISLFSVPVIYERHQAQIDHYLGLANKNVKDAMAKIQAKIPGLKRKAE
Chain of Glucocorticoid receptor (Homo sapiens) (P04150 whole entry): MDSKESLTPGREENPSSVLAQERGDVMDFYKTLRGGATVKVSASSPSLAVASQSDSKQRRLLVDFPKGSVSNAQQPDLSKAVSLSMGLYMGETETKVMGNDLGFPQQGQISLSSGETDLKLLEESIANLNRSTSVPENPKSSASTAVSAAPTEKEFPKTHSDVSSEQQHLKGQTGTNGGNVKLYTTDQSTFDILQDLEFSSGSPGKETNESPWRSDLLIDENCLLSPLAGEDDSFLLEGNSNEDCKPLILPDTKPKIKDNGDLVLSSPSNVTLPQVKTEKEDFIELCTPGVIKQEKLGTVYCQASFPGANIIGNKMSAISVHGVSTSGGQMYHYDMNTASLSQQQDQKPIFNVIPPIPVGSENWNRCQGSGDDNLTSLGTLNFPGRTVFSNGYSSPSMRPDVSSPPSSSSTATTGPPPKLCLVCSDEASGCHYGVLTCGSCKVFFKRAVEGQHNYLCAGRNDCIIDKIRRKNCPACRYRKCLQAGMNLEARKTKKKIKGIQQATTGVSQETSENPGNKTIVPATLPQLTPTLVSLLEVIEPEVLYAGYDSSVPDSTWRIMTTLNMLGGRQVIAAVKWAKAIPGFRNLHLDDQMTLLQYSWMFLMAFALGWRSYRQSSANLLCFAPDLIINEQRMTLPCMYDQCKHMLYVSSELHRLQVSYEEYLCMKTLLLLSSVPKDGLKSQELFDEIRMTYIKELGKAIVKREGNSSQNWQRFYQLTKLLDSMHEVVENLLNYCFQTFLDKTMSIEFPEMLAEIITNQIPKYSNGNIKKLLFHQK

C#CCO/N=C1\C=CC[C@]2(O)[C@H]3O[C@H]3[C@H]3[C@@H]4CC[C@H]([C@@](C)(O)[C@H]5CC(C)=C(C)C(=O)O5)[C@@]4(C)CC[C@@H]3[C@@]12C
Activity (SH-SY5Y [1]): 58% | Activity (SH-SY5Y [2]): 37% | log2FC [3]: 0.964 | log2FC [4]: 2.25 | log2FC [5]: 7.33 | log2FC [6]: 3.73 | Activity [7]: Active | log2FC [8]: 2.27 | Activity (SH-SY5Y [9]): 33% | log2FC [10]: 1.16

CC1=C(/C=C/C(C)=C/C=C/C(C)=C/C(=O)O)C(C)(C)CCC1 [TRETINOIN]
Activity (SH-SY5Y [1]): 45%

C#CCO/N=C1\CCC[C@]2(O)[C@H]3O[C@H]3[C@H]3[C@@H]4CC[C@H]([C@@](C)(O)[C@H]5CC(C)=C(C)C(=O)O5)[C@@]4(C)CC[C@@H]3[C@@]12C
Activity (SH-SY5Y [1]): 48%

C#CCO/N=C1/C=C[C@]2(C)[C@H]3CC[C@]4(C)[C@@H]([C@@](C)(O)[C@H]5CC(C)=C(C)C(=O)O5)CC[C@H]4[C@@H]3[C@@H]3O[C@@H]3[C@@]2(O)C1
Activity (SH-SY5Y [1]): 55%

C#CCOC(=O)/C(C)=C(C)\C=C\[C@](C)(O)[C@H]1CC[C@H]2[C@@H]3[C@@H]4O[C@@H]4C4=CC=CC(=O)[C@]4(C)[C@H]3CC[C@@]21C
log2FC [11]: 1.28 | Activity (SH-SY5Y [1]): 41% | log2FC [12]: 2.45 | log2FC [13]: 1.88 | Activity (SH-SY5Y [2]): 40% | log2FC [14]: 2.11 | log2FC [15]: 1.74 | log2FC [16]: 2.81 | log2FC [17]: 4.38 | log2FC [18]: 1.79 | log2FC [19]: 1.02 | log2FC [20]: 1.89 | log2FC [21]: 2.14 | log2FC [5]: 4.61 | log2FC [22]: 2.96 | log2FC [23]: 4.85 | log2FC [24]: 2.46 | log2FC [25]: 2.03 | log2FC [26]: 1.25 | log2FC [27]: 3.66 | Activity (SH-SY5Y [9]): 44% | log2FC [28]: 1.47 | log2FC [29]: 3.04 | log2FC [30]: 2.05

C[C@@H]1C[C@H]2[C@@H]3CCC4=CC(=O)C=C[C@]4(C)[C@@]3(F)[C@@H](O)C[C@]2(C)[C@@]1(O)C(=O)CO [DEXAMETHASONE]
Activity (SH-SY5Y [1]): 16%

C#CCO/N=C1/CC[C@]2(C)[C@H]3CC[C@]4(C)[C@@H]([C@@](C)(O)[C@H]5CC(C)=C(C)C(=O)O5)CC[C@H]4[C@@H]3[C@@H]3O[C@@H]3[C@@]2(O)C1
Activity (SH-SY5Y [1]): 50%

CC1=C(C)C(=O)O[C@@H]([C@](C)(O)[C@H]2CC[C@H]3[C@@H]4[C@@H]5O[C@@H]5[C@@]5(O)CC=CC(=O)[C@]5(C)[C@H]4CC[C@]23C)C1 [WITHANOLIDE A]
Activity (SH-SY5Y [1]): 46% | Activity (SH-SY5Y [2]): 46% | Activity (SH-SY5Y [9]): 47%

C#CCOC(=O)/C(C)=C(C)\C=C\[C@](C)(O)[C@H]1CC[C@H]2[C@@H]3[C@@H]4O[C@@H]4[C@@]4(O)CC=CC(=O)[C@]4(C)[C@H]3CC[C@@]21C
Activity (SH-SY5Y [1]): 40% | Activity (SH-SY5Y [2]): 38% | log2FC [31]: 2.25 | log2FC [14]: 1.38 | log2FC [32]: 1.16 | log2FC [33]: 1.62 | log2FC [17]: 3.01 | log2FC [34]: 2.08 | log2FC [18]: 2.99 | log2FC [4]: 3.52 | log2FC [35]: 1.08 | log2FC [22]: 1.18 | log2FC [23]: 3.3 | log2FC [36]: 1.86 | log2FC [6]: 8.71 | log2FC [37]: 1.63 | log2FC [38]: 1.27 | log2FC [39]: 3.09 | log2FC [40]: 1.41 | log2FC [25]: 1.96 | Activity [7]: Active | log2FC [41]: 3.99 | Activity (SH-SY5Y [9]): 40% | log2FC [42]: 1.875 | log2FC [30]: 2.16 | log2FC [43]: 2.34 | log2FC [10]: 4.11 | log2FC [44]: 7.1

CC#C[C@]1(O)CC[C@H]2[C@@H]3CCC4=CC(=O)CCC4=C3[C@@H](c3ccc(N(C)C)cc3)C[C@@]21C [MIFEPRISTONE]
Activity (SH-SY5Y [1]): 50%
